Measured values taken from patent US12303845B2, “Method for crystallization of active pharmaceutical ingredients” (Nanoform Finland Oyj, priority 2023, dated 2025).

Legend:
Type in all cases: physicochemical
[1] = Crystallization of amorphous nanosized API in aqueous polymer solution, polymorph/crystallinity by XRD
Experimental: XRPD measurements were carried out using the Malvern PANalytical Empyrean X-ray diffractometer equipped with a Cu Kα (1.54 Å) source, MultiCore optics and a solid-state PIXcel3D detector. By using Kapton tape the samples were attached onto aluminum or polycrystalline silicon sample holders. Dried slurries were measured without further sample preparation under Kapton tape and suspensions were filtered, dried, and filters were attached with double sided tape. The samples were measured in the reflection geometry in a spinning measurement stage. The measurement range was 5-40 (°2θ). The step size and time per step values were varied depending on the counts per second obtained.
Determination of crystallization of API nanoparticles was evaluated via kinetic study of suspension. Accordingly, XRD measurement was done for suspension in different time points.
Amorphous API nanoparticles (budesonide, ezetimibe, ceritinib, and apalutamide) were added as dry powders to aqueous polymer solutions. The mixtures were either • (i) mixed with a magnetic stirrer and ultrasonicated until API was completely surrounded by water (wetted). The stirring was continued for 16-24 h at ambient temperature or • (ii) blended with a metal spatula and allowed to stay at room temperature for 18-24 h.
The suspensions formed were analyzed after 18-24 h. SEM and XRD samples were prepared as described above.

[2] = SEM of crystallized suspensions and dried products (crystal size grade, particle size); design: key: 5 = nanocrystals; 1 = large crystals
Experimental: SEM images were captured using the Zeiss Sigma 300 VP SEM instruments. Samples were dispersed into water and filtered with 0.1 μm filter. Filters were dried, transferred to SEM sample holders, and coated with a 5 nm thick layer of platinum. Amorphous API nanoparticles (budesonide, ezetimibe, ceritinib, and apalutamide) were added as dry powders to aqueous polymer solutions. The mixtures were either • (i) mixed with a magnetic stirrer and ultrasonicated until API was completely surrounded by water (wetted). The stirring was continued for 16-24 h at ambient temperature or • (ii) blended with a metal spatula and allowed to stay at room temperature for 18-24 h. The suspensions formed were analyzed after 18-24 h. SEM and XRD samples were prepared as described above. Suspension comprising nanosized APIs prepared as shown above were dried in a vacuum desiccator overnight. The solid materials were grounded to produce powders. The powders were analyzed on XRD and SEM. The powders comprising nanosized APIs were used in the stability, permeability, and dissolution tests as described above.

[3] = Stability tests of solid material (SEM, XRD, HPLC); details: nanosized ceritinib composition, fresh vs stored at room temperature for one month
Experimental: Solid material was weighted in separate vials (approx. 150 mg of material in each) and transferred to stability chambers. Three conditions were applied: ambient conditions (material in closed vial at RT), 25° C./65% RH and 40° C./75% RH. Material was analyzed at T0 as freshly prepared, T7 ([…]), T14 ([…]) and T30 (30 d) after the initiation of stability studies. SEM, XRD and dissolution/permeability studies were used to evaluate the crystallinity, particle size/morphology and performance of the material.

[4] = HPMC 1 wt.-%, SLS 0.2 wt.-%, mAPI 25 mg/g
[5] = HPMC 1 wt.-%, no SLS, mAPI 25 mg/g
[6] = HPMC 2.5 wt.-%, SLS 0.2 wt.-%, mAPI 25 mg/g
[7] = HPMC 2.5 wt.-%, no SLS, mAPI 25 mg/g
[8] = HPMC 5 wt.-%, SLS 0.2 wt.-%, mAPI 100 mg/g
[9] = HPMC 5 wt.-%, SLS 0.2 wt.-%, mAPI 150 mg/g
[10] = HPMC 5 wt.-%, SLS 0.2 wt.-%, mAPI 200 mg/g
[11] = PVPVA 1 wt.-%, SLS 0.2 wt.-%, mAPI 25 mg/g
[12] = PVPVA 1 wt.-%, no SLS, mAPI 25 mg/g polymer solution
[13] = PVPVA 2.5 wt.-%, SLS 0.2 wt.-%, mAPI 25 mg/g
[14] = PVPVA 2.5 wt.-%, no SLS, mAPI 25 mg/g
[15] = PVPVA 5 wt.-%, SLS 0.2 wt.-%, mAPI 25 mg/g
[16] = PVPVA 5 wt.-%, no SLS, mAPI 25 mg/g
[17] = PVPVA 10 wt.-%, SLS 0.2 wt.-%, mAPI 25 mg/g
[18] = PVPVA 10 wt.-%, no SLS, mAPI 25 mg/g
[19] = PVPVA 20 wt.-%, no SLS, mAPI 200 mg/g
[20] = PVPVA 25 wt.-%, SLS 0.2 wt.-%, mAPI 500 mg/g
[21] = PVPVA 25 wt.-%, no SLS, mAPI 250 mg/g
[22] = PVPVA 25 wt.-%, no SLS, mAPI 500 mg/g
[23] = PVPVA 45 wt.-%, SLS 0.2 wt.-%, mAPI 450 mg/g
[24] = PVPVA 45 wt.-%, no SLS, mAPI 450 mg/g
[25] = Poloxamer 407 1 wt.-%, SLS 0.2 wt.-%, mAPI 25 mg/g
[26] = Poloxamer 407 1 wt.-%, no SLS, mAPI 25 mg/g
[27] = Poloxamer 407 2.5 wt.-%, SLS 0.2 wt.-%, mAPI 25 mg/g
[28] = Poloxamer 407 2.5 wt.-%, no SLS, mAPI 25 mg/g
[29] = Poloxamer 407 5 wt.-%, SLS 0.2 wt.-%, mAPI 25 mg/g
[30] = Poloxamer 407 5 wt.-%, no SLS, mAPI 25 mg/g
[31] = Poloxamer 407 15 wt.-%, SLS 0.2 wt.-%, mAPI 150 mg/g
[32] = Poloxamer 407 15 wt.-%, SLS 0.2 wt.-%, mAPI 300 mg/g
[33] = Poloxamer 407 15 wt.-%, SLS 0.2 wt.-%, mAPI 450 mg/g
[34] = Poloxamer 407 15 wt.-%, no SLS, mAPI 150 mg/g
[35] = Poloxamer 407 15 wt.-%, no SLS, mAPI 300 mg/g
[36] = Poloxamer 407 15 wt.-%, no SLS, mAPI 450 mg/g
[37] = Poloxamer 407 5 wt.-%, no SLS, mAPI 150 mg/g
[38] = Poloxamer 407 7.5 wt.-%, no SLS, mAPI 150 mg/g
[39] = Poloxamer 407 7.5 wt.-%, no SLS, mAPI 300 mg/g
[40] = Poloxamer 407 10 wt.-%, SLS 0.2 wt.-%, mAPI 25 mg/g
[41] = Poloxamer 407 10 wt.-%, no SLS, mAPI 25 mg/g

## CNC(=O)c1ccc(N2C(=S)N(c3cnc(C#N)c(C(F)(F)F)c3)C(=O)C23CCC3)cc1F [Apa, apalutamide]
[1]; [4]
  Polymorph: new
[1]; [5]
  Polymorph: new
[1]; [6]
  Polymorph: new
[1]; [7]
  Polymorph: new
[1]; [8]
  Polymorph: new
[1]; [9]
  Polymorph: new
[1]; [10]
  Polymorph: new
[1]; HPMC 5 wt.-%, SLS 0.2 wt.-%, mAPI 250 mg/g
  Polymorph: new
[1]; HPMC 5 wt.-%, SLS 0.2 wt.-%, mAPI 300 mg/g
  Polymorph: new
[1]; HPMC 5 wt.-%, no SLS, mAPI 100 mg/g
  Polymorph: amorphous
[1]; [11]
  Polymorph: new
[1]; [12]
  Polymorph: new
[1]; [13]
  Polymorph: new
[1]; [14]
  Polymorph: new
[1]; [15]
  Polymorph: new
[1]; [16]
  Polymorph: new
[1]; [17]
  Polymorph: new
[1]; [18]
  Polymorph: new
[1]; PVPVA 15 wt.-%, no SLS, mAPI 450 mg/g
  Polymorph: amorphous
[1]; PVPVA 15 wt.-%, no SLS, mAPI 600 mg/g
  Polymorph: amorphous
[1]; [19]
  Polymorph: new
[1]; PVPVA 20 wt.-%, no SLS, mAPI 600 mg/g
  Polymorph: amorphous
[1]; [20]
  Polymorph: new
[1]; [21]
  Polymorph: new
[1]; [22]
  Polymorph: new
[1]; [23]
  Polymorph: new
[1]; [24]
  Polymorph: new
[1]; [25]
  Polymorph: Form B
[1]; [26]
  Polymorph: Form B
[1]; [27]
  Polymorph: Form B
[1]; [28]
  Polymorph: Form B
[1]; [29]
  Polymorph: Form B
[1]; [30]
  Polymorph: Form B
[1]; [31]
  Polymorph: Form B
[1]; [32]
  Polymorph: Form B
[1]; [33]
  Polymorph: Form B
[1]; [34]
  Polymorph: Form B
[1]; [35]
  Polymorph: Form B
[1]; [36]
  Polymorph: Form B
[2]; [4]
  Grade (SEM, visual inspection): 5
[2]; [5]
  Grade (SEM, visual inspection): 5
[2]; [6]
  Grade (SEM, visual inspection): 5
[2]; [7]
  Grade (SEM, visual inspection): 4
[2]; [8]
  Grade (SEM, visual inspection): 5
[2]; [9]
  Grade (SEM, visual inspection): 5
[2]; [10]
  Grade (SEM, visual inspection): 5
[2]; [11]
  Grade (SEM, visual inspection): 4
[2]; [12]
  Grade (SEM, visual inspection): 4
[2]; [13]
  Grade (SEM, visual inspection): 4
[2]; [14]
  Grade (SEM, visual inspection): 4
[2]; [15]
  Grade (SEM, visual inspection): 4
[2]; [16]
  Grade (SEM, visual inspection): 4
[2]; [17]
  Grade (SEM, visual inspection): 5
[2]; [18]
  Grade (SEM, visual inspection): 4
[2]; [19]
  Grade (SEM, visual inspection): 5
[2]; [20]
  Grade (SEM, visual inspection): 5
[2]; [21]
  Grade (SEM, visual inspection): 5
[2]; [22]
  Grade (SEM, visual inspection): 5
[2]; [23]
  Grade (SEM, visual inspection): 5
[2]; [24]
  Grade (SEM, visual inspection): 5
[2]; [25]
  Grade (SEM, visual inspection): 2
[2]; [26]
  Grade (SEM, visual inspection): 2
[2]; [27]
  Grade (SEM, visual inspection): 2
[2]; [28]
  Grade (SEM, visual inspection): 2
[2]; [29]
  Grade (SEM, visual inspection): 2
[2]; [30]
  Grade (SEM, visual inspection): 2
[2]; [31]
  Grade (SEM, visual inspection): 1
[2]; [32]
  Grade (SEM, visual inspection): 1
[2]; [33]
  Grade (SEM, visual inspection): 1
[2]; [34]
  Grade (SEM, visual inspection): 1
[2]; [35]
  Grade (SEM, visual inspection): 1
[2]; [36]
  Grade (SEM, visual inspection): 1

## Cc1cc(Nc2ncc(Cl)c(Nc3ccccc3S(=O)(=O)C(C)C)n2)c(OC(C)C)cc1C1CCNCC1 [Cere, ceritinib]
[1]; [7]
  Polymorph: amorphous
[1]; [11]
  Polymorph: amorphous
[1]; [13]
  Polymorph: amorphous
[1]; [14]
  Polymorph: amorphous
[1]; [15]
  Polymorph: amorphous
[1]; [17]
  Polymorph: amorphous
[1]; [25]
  Polymorph: Form 1
[1]; [26]
  Polymorph: Form 1
[1]; [27]
  Polymorph: Form 1
[1]; [28]
  Polymorph: Form 1
[1]; [29]
  Polymorph: Form 1
[1]; [30]
  Polymorph: Form 1
[1]; [37]
  Polymorph: Form 1
[1]; [38]
  Polymorph: Form 1
[1]; [39]
  Polymorph: Form 1
[1]; [40]
  Polymorph: Form 1
[1]; [41]
  Polymorph: Form 1
[1]; [31]
  Polymorph: Form 1
[1]; [32]
  Polymorph: Form 1
[1]; [34]
  Polymorph: Form 1
[1]; [35]
  Polymorph: Form 1
[1]; [36]
  Polymorph: Form 1
[2]; [25]
  Grade (SEM, visual inspection): 5
[2]; [26]
  Grade (SEM, visual inspection): 5
[2]; [27]
  Grade (SEM, visual inspection): 5
[2]; [28]
  Grade (SEM, visual inspection): 5
[2]; [29]
  Grade (SEM, visual inspection): 5
[2]; [30]
  Grade (SEM, visual inspection): 5
[2]; [37]
  Grade (SEM, visual inspection): 3
[2]; [38]
  Grade (SEM, visual inspection): 3
[2]; [39]
  Grade (SEM, visual inspection): 3
[2]; [40]
  Grade (SEM, visual inspection): 5
[2]; [41]
  Grade (SEM, visual inspection): 5
[2]; [31]
  Grade (SEM, visual inspection): 5
[2]; [32]
  Grade (SEM, visual inspection): 5
[2]; [34]
  Grade (SEM, visual inspection): 5
[2]; [35]
  Grade (SEM, visual inspection): 5
[2]; [36]
  Grade (SEM, visual inspection): 5
[3]
  Stability of composition by SEM: good stability
